Test [1] deals with mice exposed to intra-abdominally induced chemical pain. As to the kind of experiment: animal or person. The format is in vivo, mouse. As to the method:
(§1) The ED50 was the dose which reduced the total number of writhes by 50%. […] A modification of the tail flick test described by Dewey and Harris (in: S. Ehrenpreis and A. Neidle (eds.), Methods in Narcotics Research, Marcel Dekker, Inc., New York, 1975, pp. 101-108) was used to measure the tail flick reaction times following oral or subcutaneous administration of the compounds of formula I of the invention.
(§2) Doses were calculated as the salts of all the compounds. Injection volume was 0.1 ml/10 g body weight. For each test compound, ED 50 values were calculated separately for each test. Log dose regression analysis and Fieller's Theorem were used to compute the ED 50 and its 95 percent confidence limits. The analysis was performed on the tail flick latency scores of all mice that were treated with a test compound. For any given test, the average tail flick latency score of the vehicle control group was calculated and a latency value, Z, was derived from this, as follows: [formula] where the cutoff time was 10 seconds. […] The value of Z was entered as an interpolate into the regression analysis so that an ED50, defined as the dose that increased tail flick latencies by 50 percent of the maximum possible response, could be computed.

The test system of test [2] is mice exposed to radiant heat stimulus on the tail. Nature of the test: animal or person. The format is in vivo, male mice (Charles River, CF-1/CD).
Source text: as §1
More specifically, groups of 10 male mice (Charles River, CF-1/CD, 18-22 gm) were placed in individual stainless steel, ventilated, cylindrical restrainers with their tails protruding through a hole at one end. The restraining tubes were positioned on a sliding platform so that each mouse, in turn, could be exposed to a high intensity lamp. The rays from the lamp were focused by means of a parabolic reflector directly on the tail. The intensity of the heat was adjusted by means of a rheostat so that untreated mice would responsed in approximately 2 to 4 seconds. When the endpoint response occurred (a sudden twitch of the tail, removing it from the path of the radiant heat stimulus), the experimenter stopped a reaction time clock. In the event that no response occurred within 10 seconds (the cutoff time), the tester terminated the trial and assigned a latency score of 10 seconds for that trial. The reaction time of each mouse was determined before and again 30,60,90 and 120 minutes after treatment.
Each group of 10 mice was treated orally or subcutaneously with vehicle (normal saline) or with logarithmically spaced doses of the test compounds. For most compounds, four dose levels, which were studied in a single test session, were sufficient to provide a satisfactory estimate of the ED50. Occasionally, five or six does levels were needed. […] Because of this, some vehicle control groups and dosed groups consisted of a total of 20 mice, rather than 10.
as §2

Setting [3] is: mouse, oral, dose which reduced the total number of writhes by 50%, doses as the salts, read-out: ED50 Writhing Oral.
[4] abbreviates: sc, mouse, subcutaneous, dose which reduced the total number of writhes by 50%, doses as the salts, read-out: ED50 Writhing Subcu.
Where [5] appears, read: mouse, oral, dose that increased tail flick latencies by 50 percent of the maximum possible response, cutoff 10 seconds, doses as the salts, read-out: ED50 Tail Flick Oral.
[6] abbreviates: sc, mouse, subcutaneous, dose that increased tail flick latencies by 50 percent of the maximum possible response, cutoff 10 seconds, doses as the salts, read-out: ED50 Tail Flick Subcu.
[7] abbreviates: Mus musculus, po, read-out: ED50 Writhing Oral.
Setting [8] is: Mus musculus, sc, read-out: ED50 Writhing Subcu.
[9] abbreviates: Mus musculus, po, read-out: ED50 Tail Flick Oral.
Where [10] appears, read: Mus musculus, sc, read-out: ED50 Tail Flick Subcu.

Consider 11 compounds from patent publication US4374139A, “Levorotatory N-substituted acylmorphinans useful as analgesic agents” (priority 1981, dated 1983).

In general, ED50 refers to the dose at which the effect has come halfway, by size or by number of responders.

Counter-ions that a name gives are not always drawn. Like-named read-outs stand apart in the source and are kept apart here.

Take `CCC(=O)c1ccc2c(c1)[C@@]13CCCC[C@H]1[C@@H](C2)N(C)CC3.Cl` [(-)-1-(17-methylmorphinan-3-yl)-1-propanone hydrochloride]: the ED50 was 1.9 mg/kg in test [1] (setting [3]), 0.22 mg/kg in test [1] (setting [4]), 12 mg/kg in test [2] (setting [5]) and 2.3 mg/kg in test [2] (setting [6]).
For the compound `CC(=O)c1ccc2c(c1)[C@@]13CCCC[C@H]1[C@@H](C2)N(CC=C(C)C)CC3.O.O=C(O)C(O)C(O)C(=O)O` [(-)-1-[17-(3-methyl-2-butenyl)morphinan-3-yl]ethanone d-tartrate monohydrate], the median effective dose (ED50) in test [1] (setting [7]) was 43 mg/kg; in test [1] (setting [8]), 5.9 mg/kg; in test [2] (setting [9]) it was 115 mg/kg; in test [2] (setting [10]), ~50 mg/kg.
On to `CC(=O)c1ccc2c(c1)[C@@]13CCCC[C@H]1[C@@H](C2)N(CCc1ccccc1)CC3` [(-)-1-[N-(2-phenethyl)morphinan-3-yl]ethanone d-tartrate hemihydrate], for which the ED50 in test [1] (setting [3]) is 1.2 mg/kg; in test [1] (setting [4]), 0.39 mg/kg; in test [2] (setting [5]), 10.4 mg/kg; in test [2] (setting [6]), 1.8 mg/kg.
In the case of `CC(=O)c1ccc2c(c1)[C@@]13CCCC[C@H]1[C@@H](C2)N(CC1CC1)CC3.Cl` [(-)-1-[N-(cyclopropylmethyl)morphinan-3-yl]-ethanone hydrochloride], the ED50 in test [1] (setting [3]) was determined as 2.1 mg/kg; in test [1] (setting [4]) it was 0.18 mg/kg; in test [2] (setting [5]), 1.5 mg/kg; in test [2] (setting [6]) it was 2.3 mg/kg.
As for `CC(=O)c1ccc2c(c1)C[C@@H]1[C@@H]3CCCC[C@]23CCN1C.O=C(O)C(O)C(O)C(=O)O` [(-)-2-acetyl-N-methylmorphinan d-tartrate], the ED50 in test [1] (setting [7]) was 22.3 mg/kg; in test [1] (setting [8]), 4 mg/kg; in test [2] (setting [9]), 75 mg/kg; in test [2] (setting [10]) it was > 50 mg/kg.
In the case of `CC(=O)c1ccc2c(c1)[C@@]13CCCC[C@H]1[C@@H](C2)N(CCC#N)CC3.Cl` [(-)-3-acetyl-17-morphinanpropanenitrile hydrochloride], the ED50 in test [1] (setting [3]) amounted to 4.4 mg/kg; in test [1] (setting [4]), 0.57 mg/kg; in test [2] (setting [5]) it was 51.2 mg/kg; in test [2] (setting [6]), 6.1 mg/kg.
`CC(=O)c1ccc2c(c1)[C@@]13CCCC[C@H]1[C@@H](C2)N(CC1CCC1)CC3.Cl` [(-)-3-acetyl-N-cyclobutylmethylmorphinan hydrochloride]: the ED50 in test [1] (setting [3]) was found to be 5.7 mg/kg; in test [1] (setting [4]) it was 1.2 mg/kg; in test [2] (setting [5]) it was 27.6 mg/kg; in test [2] (setting [6]), 4.9 mg/kg.
Turning to `CC(=O)c1ccc2c(c1)[C@@]13CCCC[C@H]1[C@@H](C2)N(C)CC3.O=C(O)C(O)C(O)C(=O)O` [(-)-3-acetyl-N-methylmorphinan d-tartrate], the ED50 was 0.5 mg/kg in test [1] (setting [7]), 0.08 mg/kg in test [1] (setting [8]), 2 mg/kg in test [2] (setting [9]) and 3.9 mg/kg in test [2] (setting [10]).
`CN1CC[C@]23CCCC[C@H]2[C@H]1Cc1ccc(C(=O)c2ccccc2)cc13.O=C(O)C(O)C(O)C(=O)O` [(-)-(17-methylmorphinan-3-yl)phenylmethanone d-tartrate]: the ED50 in test [1] (setting [7]) was 35.5 mg/kg; in test [1] (setting [8]) it was 22.2 mg/kg; in test [2] (setting [9]), > 200 mg/kg; in test [2] (setting [10]), > 50 mg/kg.
Consider `CN1CC[C@]23CCCC[C@H]2[C@H]1Cc1ccc(C(C)(C)O)cc13` [(-)-α,α-17-trimethylmorphinan-3-methanol hydrochloride], for which the ED50 stood at 2.5 mg/kg in test [1] (setting [3]), 1.05 mg/kg in test [1] (setting [4]), 12 mg/kg in test [2] (setting [5]) and 4.3 mg/kg in test [2] (setting [6]).
Turning to `CC(O)c1ccc2c(c1)[C@@]13CCCC[C@H]1[C@@H](C2)N(C)CC3` (stereo partly drawn) [(-)-α-17-dimethylmorphinan-3-methanol hydrochloride], the 50% effective dose (ED50) in test [1] (setting [3]) was determined as 0.36 mg/kg; in test [1] (setting [4]), 0.24 mg/kg; in test [2] (setting [5]), 1.1 mg/kg; in test [2] (setting [6]) it was 1.3 mg/kg.
